Reference: patent US20230176066A1, “PLASMON-ENHANCED FLUORO-DOT ASSAYS” (Washington University, priority 2021, published 2023)

How the values were obtained:
[1] = Fluorescence intensity vs. molar concentration of labels; format: physicochemical; conditions: linear regression
Protocol: Streptavidin-conjugated Cy3-plasmonic-fluor (PF550™ ultrabright fluor) and streptavidin-conjugated Cy5-plasmonic-fluor (PF650™ ultrabright fluor) were purchased from Auragent Biosceince LLC (St. Louis, USA). The extinction was measured using a Shimadzu UV-1800 spectrophotometer. SEM images were obtained using a FEI Nova 2300 field-emission scanning electron microscope at an acceleration voltage of 10 kV. TEM images were obtained using a JEOL JEM-2100F field emission instrument. A drop of aqueous solution was dried on a carbon-coated grid, which had been made hydrophilic by glow discharge. Molar concentrations of plasmonic-fluors was calculated as described previously. Fluorescence intensity was recorded using Azure Biomolecular Imager: Sapphire RGBNIR (Azure Biosystems, Inc. Dublin, USA) and the images were analyzed using Licor Image Studio Lite.
For analyzing the statistical difference between more than two groups, one-way analysis of variance (ANOVA) with a post-hoc Tukey's honest significance test was used. Statistical significance of the data was calculated at 95% (p<0.05) confidence intervals. All values are expressed as mean±standard deviation. GraphPad Prism 6 was used for all statistical analysis. Linear regression was used to calculate the equation and to derive the slope of fluorescence intensity vs. molar concentration graph. […]

JAWS II dendritic cells [2] = assay: Multiplexed Fluoro-dot assay: TNFα and IL-6 secretion after LPS stimulation; format: cell-based, Mouse; conditions: 200 ng/ml LPS
Protocol: Mouse TNFα DuoSet ELISA kits (R&D systems, catalog number DY410, lot number P189768) and mouse IL-6 DuoSet ELISA kit (R&D systems, catalog number DY406, lot number P234212) were used to perform the assays. Glass-bottom 96-well black plate (P96-1.5H-N, Cellvis, Mountain View, USA) was first coated with both TNFα capture antibody (0.8 μg/ml in PBS) and IL-6 capture antibody (2 μg/ml in PBS), 100 μ/well, and incubated overnight at 4° C. The plate was washed three times with 1×PBS and then blocked with 200 μl of reagent diluent (1×PBS in 1% BSA, 0.2 μm filtered). After blocking the plates were washed three times with PBS. JAWS II dendritic cells (ATCC® CRL-11904™) were cultured in alpha minimum essential medium with ribonucleosides, deoxyribonucleosides, 4 mM L-glutamine, 1 mM sodium pyruvate and 5 ng/ml murine GM-CSF, 10% heat-inactivated fetal bovine serum, 50 IU/ml of penicillin, 50 μg/ml of streptomycin. JAWS II DCs were seeded on the capture coated plates, at the seeding density of 5,000 cells/well in 100 μl of medium followed by incubation at 37° C. in 5% CO2 for 30 minutes. All the non-adherent cells were removed by taking out the medium and replacing it with 100 μl of fresh medium containing 200 ng/ml of LPS. The cells were incubated at 37° C. in 5% CO2 for 30 minutes, 1 hour, 2 hours, and 3 hours. The wells with medium and without LPS were incubated for 3 hours. […]

JAWS II dendritic cells [3] = assay: ELISA of culture supernatant of JAWS II DC after LPS stimulation; format: cell-based, Mouse; conditions: low dose and short duration of stimulation
Protocol: (§1) After completion of the incubation duration, the medium was decanted, and the cells were fixed using 100 μl/well of 4% neutral buffered formalin (NBF) for 20 minutes at room temperature. The plates were then washed three times with PBS and incubated with biotinylated detection antibodies, 75 ng/ml in reagent diluent for 2 hours at room temperature. The plates were washed three times using PBS and then were incubated with 100 μl/well of streptavidin Cy5-plasmonic-fluors (extinction 0.5) for 30 minutes at room temperature in dark. For comparison, 100 μl of 1 μg/ml of streptavidin-Cy5 (Thermo Fisher Scientific, catalog number SA1011) as conventional fluorophore and 1 nM of streptavidin QD655™ (Thermo Fisher Scientific, catalog number Q10123MP) was added to each well for 30 minutes at room temperature in dark. The plates were washed with PBS three times, and the nuclei of the cells were stained with 300 nM DAPI solution (Millipore Sigma, St. Louis, Mo., USA) for 5 minutes at room temperature in dark. Finally, the plates were washed three times in PBS and imaged using Nikon TsR2 epifluorescence microscope. For ELISA, culture supernatants of JAWS II DC after treatment described above were collected and TNFα concentration was measured using mouse TNFα DuoSet ELISA kits (R&D systems, catalog number DY410, lot number P189768) as per manufacturer's instructions.

JAWS II dendritic cells [4] = assay: Fluoro-dot assay on JAWS II DC: TNFα secretion after LPS stimulation; format: cell-based, Mouse; conditions: for TNFα secretion: 90 minutes incubation
Protocol: Mouse TNFα DuoSet ELISA kits (R&D systems, catalog number DY410, lot number P189768) was used to perform the assays. Glass-bottom 96-well black plate (P96-1.5H-N, Cellvis, Mountain View, USA) was first coated with capture antibodies (0.8 μg/ml in PBS), 100 μl/well and incubated overnight at 4° C. The plate was washed three times with 1×PBS and then blocked with 200 μl of reagent diluent (1×PBS in 1% BSA, 0.2 μm filtered). After blocking, the plates were washed three times with PBS. Mouse JAWS II dendritic cells (immature, monocytes ATCC® CRL11904™) were cultured in alpha minimum essential medium with ribonucleosides, deoxyribonucleosides, 4 mM L-glutamine, 1 mM sodium pyruvate and 5 ng/ml murine GM-CSF, 10% heat-inactivated fetal bovine serum, 50 IU/ml of penicillin, 50 μg/ml of streptomycin. JAWS II DCs were seeded on the capture coated plates, at the seeding density of 5,000 cells/well in 100 μl of medium followed by incubation at 37° C. in 5% CO2 for 30 minutes. All the non-adherent cells were removed by taking out the medium and replacing it with 100 μl of fresh medium containing varying amounts of LPS ranging from (0 to 2000 ng/ml). The cells were incubated at 37° C. in 5% CO2 for varying durations from 20 minutes to 90 minutes.
as §1

| Substance | slope of fluorescence intensity vs. molar concentration, steeper than that of the conventional fluorophore (Cy5 or Cy3) [1] | secretion of TNFα and IL-6 with increasing duration of LPS incubation (JAWS II dendritic cells [2]; 30 minutes to 3 hours) | relative secretion of IL-6 and TNFα at longer time durations (JAWS II dendritic cells [2]; 2 hours and 3 hours) | amount of TNFα secretion by ELISA (JAWS II dendritic cells [3]) | TNFα secretion (JAWS II dendritic cells [4]; 2 ng/ml LPS) | TNFα secretion (JAWS II dendritic cells [4]; 20 ng/ml LPS) | duration of treatment at which difference between treated and untreated cells was statistically significant (JAWS II dendritic cells [4]; 200 ng/ml LPS) | incubation time after which TNFα secretion was detectable (JAWS II dendritic cells [4]; 200 ng/ml LPS) [min] | TNFα secretion with increasing LPS concentration (JAWS II dendritic cells [4]; 20, 200, 2000 ng/ml LPS, 90 minutes) | LPS dose at which difference between treated and untreated cells was statistically significant (JAWS II dendritic cells [4]; 90 min incubation, number of clusters and particles/cluster) |
| --- | --- | --- | --- | --- | --- | --- | --- | --- | --- | --- |
| Cy5-plasmonic-fluor: Streptavidin-conjugated Cy5 plasmon-enhanced fluorescent nanolabel purchased from Auragent Bioscience | ~16,000 fold | – | – | – | – | – | – | – | – | – |
| lipopolysaccharide [LPS] | – | increase in the overall secretion of both cytokines | more predominant IL-6 secretion as compared to TNFα | below its detection limit | no significant secretion of TNFα | Substantial secretion | more than 40 minutes | 40 | increase in TNFα secretion | higher than 20 ng/ml |
